Source: patent US20250049970A1, “DLL3 TARGETING PEPTIDES AND CONSTRUCTS THEREOF” (MARIANA ONCOLOGY INC., priority 2023, published 2025)
Read-outs that look alike come from different tables or passages of the source. *1 amine or outer side, *2 acyl side, *3 side chain or, on linkers, in order; H or OH if unused. Where a SMILES comes first, the peptide text is derived from it. Bridges are numbered along the chain shown (N, C = ends). [ ]: non-standard residue; d: D form. The star is where a group is joined. ξ: configuration not given here. Ala(piperidin-4-yl) = O=C([C@H](CC1CCN([*:3])CC1)N[*:1])[*:2]; DOTA = O=C(O)CN1CCN(CC(=O)O)CCN(CC(=O)*)CCN(CC(=O)O)CC1; X2 = O=C(Cc1ccc(I)cc1)NCCOCCOCCOCCOCCOCCOCCOCCOCC(=O)*; 2Nal = N[C@@H](Cc1ccc2ccccc2c1)C(=O)O; NMetBuAla = CN[C@@H](CC(C)(C)C)C(=O)O; Thr(3ξ) = CC(O)[C@H](N)C(=O)O; Chg = N[C@H](C(=O)O)C1CCCCC1; NMeNle = CCCC[C@H](NC)C(=O)O; Tle = CC(C)(C)[C@H](N)C(=O)O; αMeP = C[C@@]1(C(=O)O)CCCN1; CH2 = C([*:1])[*:2]

How the values were obtained:
DLL3 = biological target: T1, DLL3 (Homo sapiens, UniProt Q9NYJ7); experiment: SPR KD, biotinylated human DLL3 on streptavidin chip (Table 8); set-up: biotin (biotinylated)
T1 sequence (Q9NYJ7 27-618): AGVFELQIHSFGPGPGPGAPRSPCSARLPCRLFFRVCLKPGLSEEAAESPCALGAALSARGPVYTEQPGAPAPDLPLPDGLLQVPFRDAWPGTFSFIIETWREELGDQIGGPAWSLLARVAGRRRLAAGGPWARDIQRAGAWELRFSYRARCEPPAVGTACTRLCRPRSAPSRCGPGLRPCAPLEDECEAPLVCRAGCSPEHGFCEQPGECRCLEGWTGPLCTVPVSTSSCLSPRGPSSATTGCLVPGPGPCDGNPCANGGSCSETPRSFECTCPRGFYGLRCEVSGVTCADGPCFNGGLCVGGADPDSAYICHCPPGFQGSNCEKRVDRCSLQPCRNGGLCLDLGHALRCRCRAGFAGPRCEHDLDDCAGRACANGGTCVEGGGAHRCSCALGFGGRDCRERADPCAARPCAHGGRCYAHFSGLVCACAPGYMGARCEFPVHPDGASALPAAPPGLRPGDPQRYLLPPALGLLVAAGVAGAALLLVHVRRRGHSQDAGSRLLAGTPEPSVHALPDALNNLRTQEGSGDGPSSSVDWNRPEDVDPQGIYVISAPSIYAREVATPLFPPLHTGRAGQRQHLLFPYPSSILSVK
From the text: Biotinylated target ligand human DLL3 was immobilized on a streptavidin sensor chip. A reference surface was set up for nonspecific binding and refractive index changes. […] Sensorgram curves were fitted with 1:1 binding model, and affinity and kinetic parameters were obtained using Biacore Insight evaluation 4.0. software.

SHP-77 cells [1] = experiment: Cell binding (total uptake) of [177Lu]Lu-labeled peptide, SHP-77 cells; assay type: cell-based; conditions: 1 h, 37° C.
Procedure: (§1) [^177Lu]LuCl3 was received from venders in HCl solution. For every mCi of [^177Lu]LuCl3 added to the reaction vial (1.5 mL Eppendorf vial), ammonium acetate buffer (0.2 M, pH 4.9, 100 μL, containing 1% w/v ascorbic acid and 6% v/v ethanol) and peptide conjugate (1 nmol; also referred to herein as “chelator-peptides”) was added. The pH of the solution was determined to be approximately 5 by using pH strips. The reaction vial was incubated at 80° C., 700 RPM for 17-20 minutes. A sample from the reaction was analyzed by RP-HPLC using an Agilent Infinity II 1260 HPLC to determine reaction completion and radiochemical purity of [^177Lu]Lu-chelator-peptides. HPLC conditions: Waters XBridge BEH C18 Column, 130A, 3.5 μm, 4.6 mm×250 mm; mobile phase: Solvent A=water (with 0.1% formic acid), solvent B=acetonitrile (with 0.1% formic acid). Gradients: 25-45% B in 10 minutes, 45-65% B in 12 minutes, 65-90% in 6 minutes at a flow rate of 0.5 mL/minutes Required amounts of the product was formulated in 1% PBSA for cell studies.
(§2) The study was conducted using SHP-77, CT26.WT, CT26.DLL3, and HEK293.DLL3 cells (Table 9)
(§3) Adherent cell studies: The cells were cultured in appropriate culture media (20 mL) in tissue culture treated T150 flasks at 37° C. and 5% C02. Adherent cells were detached (60-70% confluent) using 5 mL Versene at 37° C. for 3 minutes. After confirming the viability using countess and count of detached cells using Trypan blue, the cells were centrifuged at 4° C. for 5 minutes (1,000 rpm). The cell pellet obtained was washed once with PBS and resuspended in 1% PBSA to obtain the desired cell concentration (5-25 million cells/mL).
as §3, with “Suspension” for “Adherent”, “CO2.” for “C02. Adherent cells were detached (60-70% confluent) using 5 mL Versene at 37° C. for 3 minutes.”, “viability” for “viability using countess”
(§4) Cell numbers used for the assay were in the range of 5 million cells/condition-25 million cells/condition.
(§5) Total uptake: Cells were incubated with 300 μL (0.8 μCi) of the incubation buffer (containing radiolabeled peptide [^177Lu]Lu-test peptide) for 1 hour at 37° C. (Table 10). Post incubation, the cells were pelleted and washed 2 times using cold PBS+1% BSA. The supernatant and washes were combined and counted together as “unbound fraction” in a gamma counter. The cells were then resuspended in 300 μL of 1% PBS+1% BSA and counted in the gamma counter as “bound fraction”.
(§6) In these Tables, “A” represents % s ≤25; “B” represents 25 <% ≤50; “C” represents % >50.

SHP-77 cells [2] = experiment: Internalization of [177Lu]Lu-labeled peptide, SHP-77 cells; assay type: cell-based; conditions: 1 h, 37° C.
Procedure: as §1, §2, §3
as §3, with “Suspension” for “Adherent”, “CO2.” for “C02. Adherent cells were detached (60-70% confluent) using 5 mL Versene at 37° C. for 3 minutes.”, “viability” for “viability using countess”
as §4
(§7) Internalization: The resuspended cells in 300 μL of 1% PBSA and counted in the gamma counter as “bound fraction” were collected in 1.5 mL Eppendorf tube and pelleted. The pelleted cells were incubated with 300 μL of 50 mM Glycine pH=2.5 for 3 minutes and then pelleted discarding the supernatant. This process was repeated one more time. The pelleted cells were washed with 300 μL of cold 1% PBSA and then resuspended in 300 μl 0.3M NaOH. This was counted in the gamma counter as “internalized fraction”.
as §6

[3] = test system: nude mice bearing SHP-77 tumors; experiment: Ex vivo biodistribution of radiolabeled peptides (% IA/g) in nude mice bearing SHP-77 tumors; conditions: [177Lu]Lu labelling, 24 hours post-injection, intravenous
Procedure: Mice were intravenously injected (via the lateral tail vein) with a bolus dose of the radiolabeled peptides for ex vivo biodistribution studies when tumor volumes were in range of 200-400 mm^3 for xenograft mice and when age of the mice was 5-7 weeks for tumor naïve mice studies. To assess the amount of radionuclide injected into individual mice the syringe was assayed in a dose calibrator before and after injection for [^177Lu]Lu-peptide, then the injected dose was determined from the weight difference and concentration of the radionuclide solution.
Mice were euthanized at pre-determined time points and selected tissues were resected and collected into pre-weighed tubes. The tubes were then reweighed post resection, the difference giving the weight of each tissue. Radioactivity in each tissue was measured using a gamma counter. Counts were decay corrected to the time of injection and percentage of injected activity per gram (% IA/g) was calculated for each tissue based on the injected activity into each individual mouse. Injected activity was converted to counts based on the sensitivity of the gamma counter. The counts in tissue were then converted to the percentage of injected activity and this was divided by the mass of tissue to give % IA/g.

CT26.DLL3 cells [4] = experiment: Cell binding (total uptake) of [177Lu]Lu-labeled peptide, CT26.DLL3 cells; assay type: cell-based; conditions: 1 h, 37° C.
Procedure: as §1, §2, §3, §4, §5, §6

CT26.DLL3 cells [5] = experiment: Internalization of [177Lu]Lu-labeled peptide, CT26.DLL3 cells; assay type: cell-based; conditions: 1 h, 37° C.
Procedure: as §1, §2, §3, §4, §7, §6

[6] = biotinylated human DLL3 on streptavidin sensor chip, 25° C., 1:1 binding model; read-out: SPR KD

Structure (SMILES)	Kd (DLL3; [6])	kidney uptake (% IA/g) [3]	% Binding (SHP-77 cells [1])	% Internalization (out of bound fraction) (SHP-77 cells [2])	tumor uptake (% IA/g) [3]	% Binding (CT26.DLL3 cells [4])	% Internalization (out of bound fraction) (CT26.DLL3 cells [5])	Kd (DLL3; read-out: SPR KD; biotinylated human DLL3 on streptavidin sensor chip, 25° C., 1:1 binding model)
CC(=O)N[C@@H](Cc1c[nH]c2ccccc12)C(=O)N[C@H](C(=O)N[C@H](C(=O)N[C@H]1CSCSC[C@@H](C(=O)N[C@@H](Cc2c[nH]c3ccccc23)C(=O)N2CCC[C@H]2C(=O)N[C@H](CCCCNC(=O)COCCOCCOCCOCCOCCOCCOCCOCCNC(=O)Cc2ccc(I)cc2)C(N)=O)NC(=O)[C@H](CC(=O)O)NC(=O)[C@H](CCCCNC(=O)CN2CCN(CC(=O)O)CCN(CC(=O)O)CCN(CC(=O)O)CC2)NC(=O)[C@H](Cc2ccc3ccccc3c2)NC(=O)[C@H](CC(N)=O)NC(=O)[C@H](CC2CCNCC2)NC1=O)C1CCCCC1)[C@@H](C)O [compound 417] (Ac-WT[Chg]C[Ala(piperidin-4-yl)]N[2Nal]K(DOTA)DCWP[dK](X2)-NH2; linker 4-10 via CH2)	–	D (“D” represents % IA/g > 10 in kidney)	–	–	B (“B” represents % IA/g > 5 in tumor)	B (25 <% ≤50)	B (25 <% ≤50)	< 1 nM
CC(=O)NCCCC[C@@H](NC(=O)[C@@H]1CCCN1C(=O)[C@H](Cc1c[nH]c2ccccc12)NC(=O)[C@@H]1CSCSC[C@H](NC(=O)[C@H](CC(C)(C)C)N(C)C(=O)[C@@H](NC(=O)[C@H](Cc2c[nH]c3ccccc23)NC(C)=O)C(C)O)C(=O)N[C@@H](CC2CCNCC2)C(=O)N[C@@H](CC(N)=O)C(=O)N[C@@H](Cc2ccc3ccccc3c2)C(=O)N[C@@H](CCCCNC(=O)CN2CCN(CC(=O)O)CCN(CC(=O)O)CCN(CC(=O)O)CC2)C(=O)N[C@@H](CC(=O)O)C(=O)N1)C(N)=O (stereo partly drawn) [compound 445, Ac-W-T-(NMe-tBuAla)-C(1)-[3-(4-piperidinyl)-Ala]-N-(2Nal)-Lys(DOTA)-D-C(1)-W-P-[D-Lys(Ac)]-CONH2] (Ac-W[Thr(3ξ)][NMetBuAla]C[Ala(piperidin-4-yl)]N[2Nal]K(DOTA)DCWP[dK](Ac)-NH2; linker 4-10 via CH2)	< 1 nM	C (“C” represents 0 < % IA/g ≤ 10 in)	C (% >50)	C (% >50)	B (“B” represents % IA/g > 5 in tumor)	–	–	–

More lines, main results first:

Kd (DLL3; [6])	kidney uptake (% IA/g) [3]	Structure (SMILES)	% Binding (SHP-77 cells [1])	% Internalization (out of bound fraction) (SHP-77 cells [2])	tumor uptake (% IA/g) [3]	% Binding (CT26.DLL3 cells [4])	% Internalization (out of bound fraction) (CT26.DLL3 cells [5])	Kd (DLL3; read-out: SPR KD; biotinylated human DLL3 on streptavidin sensor chip, 25° C., 1:1 binding model)
< 1 nM	C (“C” represents 0 < % IA/g ≤ 10 in)	CC(=O)N[C@@H](Cc1c[nH]c2ccccc12)C(=O)N[C@H](C(=O)N(C)[C@@H](CC(C)(C)C)C(=O)N[C@H]1CSCSC[C@@H](C(=O)N[C@@H](Cc2c[nH]c3ccccc23)C(=O)N2CCC[C@@]2(C)C(N)=O)NC(=O)[C@H](CC(=O)O)NC(=O)[C@H](CCCCNC(=O)CN2CCN(CC(=O)O)CCN(CC(=O)O)CCN(CC(=O)O)CC2)NC(=O)[C@H](Cc2ccc3ccccc3c2)NC(=O)[C@H](CC(N)=O)NC(=O)[C@H](CC2CCNCC2)NC1=O)[C@@H](C)O [compound 236, Ac-W-T-(NMe-tBuAla)-C(1)-[3-(4-piperidinyl)-Ala]-N-(2Nal)-Lys(DOTA)-D-C(1)-W-(aMe-P)-CONH2] (Ac-WT[NMetBuAla]C[Ala(piperidin-4-yl)]N[2Nal]K(DOTA)DCW[αMeP]-NH2; linker 4-10 via CH2)	C (% >50)	C (% >50)	B (“B” represents % IA/g > 5 in tumor)	–	–	–
< 1 nM	C (“C” represents 0 < % IA/g ≤ 10 in)	CCCC[C@@H](C(=O)N[C@H]1CSSC[C@@H](C(=O)N[C@@H](Cc2c[nH]c3ccccc23)C(=O)N2CCC[C@H]2C(N)=O)NC(=O)[C@H](CC(=O)O)NC(=O)[C@H](CCCCNC(=O)CN2CCN(CC(=O)O)CCN(CC(=O)O)CCN(CC(=O)O)CC2)NC(=O)[C@H](Cc2ccc3ccccc3c2)NC(=O)[C@H](CC(N)=O)NC(=O)[C@H](CC2CCNCC2)NC1=O)N(C)C(=O)[C@@H](NC(=O)[C@H](Cc1c[nH]c2ccccc12)NC(C)=O)[C@@H](C)O [compound 300, Ac-W-T-(NMe-Nle)-C(3)-[3-(4-piperidinyl)-Ala]-N-(2Nal)-Lys(DOTA)-D-C(3)-W-P-CONH2] (Ac-WT[NMeNle]C[Ala(piperidin-4-yl)]N[2Nal]K(DOTA)DCWP-NH2; disulfide 4-10)	–	–	A (“A” represents 0 < % IA/g ≤ 5 in tumor)	B (25 <% ≤50)	B (25 <% ≤50)	–
< 1 nM	C (“C” represents 0 < % IA/g ≤ 10 in)	CC(=O)N[C@@H](Cc1c[nH]c2ccccc12)C(=O)N[C@H](C(=O)N[C@H](C(=O)N[C@H]1CSSC[C@@H](C(=O)N[C@@H](Cc2c[nH]c3ccccc23)C(=O)N2CCC[C@H]2C(N)=O)NC(=O)[C@H](CC(=O)O)NC(=O)[C@H](CCCCNC(=O)CN2CCN(CC(=O)O)CCN(CC(=O)O)CCN(CC(=O)O)CC2)NC(=O)[C@H](Cc2ccc3ccccc3c2)NC(=O)[C@H](CC(N)=O)NC(=O)[C@H](CC2CCNCC2)NC1=O)C(C)(C)C)[C@@H](C)O [compound 301, Ac-W-T-(Tbg)-C(3)-[3-(4-piperidinyl)-Ala]-N-(2Nal)-Lys(DOTA)-D-C(3)-W-P-CONH2] (Ac-WT[Tle]C[Ala(piperidin-4-yl)]N[2Nal]K(DOTA)DCWP-NH2; disulfide 4-10)	–	–	A (“A” represents 0 < % IA/g ≤ 5 in tumor)	B (25 <% ≤50)	B (25 <% ≤50)	–
